In patent US12168668B2, “Compounds for the treatment of cancer and inflammatory disease” (SHY Therapeutics LLC, priority 2015, dated 2024):

Legend:
TNFα = experiment: Mouse TNF alpha quantification assay (LPS-stimulated RAW 264.7, ELISA); type: cell-based; conditions: RAW264.7, RAW 264.7 macrophage cell line, LPS stimulation 16 h
Description: (§1) Protocol for Mouse TNF Alpha and IL6 Quantification Assay
(§2) Cell lines: Abelson murine leukemia virus transformed macrophage cell line RAW 264.7 was purchased from ATCC and grown in complete DMEM-High Glucose medium supplemented with penicillin (100 U/mL), streptomycin (100 μg/mL), and 10% heat-inactivated FBS at 37° C. in a humidified incubator with 5% CO2.
(§3) Method: Cells were plated at 40000 cells/well density in a 96-wells plate. After a 3-hour incubation, macrophages were starved with DMEM plus 0.5% FBS o/n. The next day the small molecules to be tested were added to the cells in the final concentration of 30 μM (with 0.3% DMSO) 3 hours prior to LPS stimulation (100 ng/ml). After LPS stimulation cells were incubated at 37° C. for 16 h. At the end of the incubation period, culture media were collected and production of LPS-induced TNFα and IL6 cytokine was measured using ELISA detection kits.
(§4) Sandwich ELISA: The ELISA Immunoassays Quantikine Mouse TNF-alpha (catalog number MTA00B) and IL6 (catalog number M6000B) were purchased from R&D Systems Inc., Minneapolis, MN These 4.5 hours solid phase ELISAs were used to measure mouse TNFα or IL6 levels in macrophages culture supernatants. Assays were executed according to the manufacturer specifications.

IL-6 = experiment: Mouse IL6 quantification assay (LPS-stimulated RAW 264.7, ELISA); type: cell-based; conditions: RAW264.7, RAW 264.7 macrophage cell line, LPS stimulation 16 h
Description: as §1, §2, §3, §4

Row | SMILES | inhibition at 30 µM (TNFα) | inhibition at 30 µM (IL-6)
1 | Oc1ccc(C2(c3ccccc3)CCCC2)cc1 | 76 to 100% | 76 to 100%
2 | Oc1nc(-c2ccccn2)nc2c(-c3ccccc3)csc12 | 76 to 100% | 
3 | Oc1nc(-c2ccccn2)nc2c(-c3ccccc3Cl)csc12 | 51 to 75% | 
